Numbered stars: 1 amine (or outer) side, 2 acyl side, 3 side chain; on linkers, the order of the positions; unused ones are H or OH. Bridge positions count the residues as written; N and C are the ends. Square brackets hold non-standard residues; d marks the D form. Side chains are listed from the residue outwards. Peptide text beside a SMILES is read from it. * marks the point of attachment. C20 diacid = O=C(O)CCCCCCCCCCCCCCCCCCC(=O)*; γGlu = O=C(O)[C@H](CCC(=O)[*:2])N[*:1]; Hyp = O=C(O)[C@@H]1C[C@@H](O)CN1; AEEA = NCCOCCOCC(=O)O Where only a bound is given, the exact number is not on record here.

Among the data in patent publication US12139520B2 (priority 2020, dated 2024) are EC50 values, retold here.

In one experiment the target is T1, hAMY3 receptor (Homo sapiens, UniProt O60896+P30988).
T1 sequence (P30988 25-474): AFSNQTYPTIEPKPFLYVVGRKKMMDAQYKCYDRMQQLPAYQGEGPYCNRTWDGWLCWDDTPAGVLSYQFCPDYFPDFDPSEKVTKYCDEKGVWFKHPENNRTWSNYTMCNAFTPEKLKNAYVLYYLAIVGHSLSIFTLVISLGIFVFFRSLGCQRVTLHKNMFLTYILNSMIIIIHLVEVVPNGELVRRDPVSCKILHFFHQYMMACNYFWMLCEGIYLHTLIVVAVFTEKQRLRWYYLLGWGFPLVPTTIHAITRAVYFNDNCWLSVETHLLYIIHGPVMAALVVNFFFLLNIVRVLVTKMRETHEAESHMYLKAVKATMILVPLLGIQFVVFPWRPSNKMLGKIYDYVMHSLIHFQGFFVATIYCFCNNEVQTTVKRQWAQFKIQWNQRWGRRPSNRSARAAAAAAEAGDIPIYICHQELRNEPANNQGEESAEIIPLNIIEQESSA
T1 sequence (O60896 24-148 partner): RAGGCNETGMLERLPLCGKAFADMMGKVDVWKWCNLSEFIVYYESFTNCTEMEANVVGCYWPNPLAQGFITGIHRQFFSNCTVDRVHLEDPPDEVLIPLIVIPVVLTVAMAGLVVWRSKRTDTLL
The experiment is described as follows: cAMP assay for in vitro receptor activation, hAMY3-R. Format: cell-based. To be noted: cAMP assay, hAMY3 receptor; read-out: hAMY3R EC50. The procedure, abridged:
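Receptor activation was measured as cAMP accumulation in a monoclonal cell line stably overexpressing hAMY3. Stimulation with graded doses lasted 30 min at room temperature in the presence of 0.5 mM IBMX, with human amylin as positive control.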
A general note: Cyclic AMP is a second messenger, typically raised through Gs and lowered through Gi signalling.

A further experiment deals with hAM1 receptor (Homo sapiens, UniProt O60895+Q16602). Description: cAMP assay for in vitro receptor activation, hAM1-R. The following applies: cAMP assay, hAM1 receptor; read-out: hAM1R EC50. It is filed as cell-based. An outline of the steps: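 Receptor activation, read as cAMP, was assessed in thawed cells of a monoclonal hAM1-overexpressing stable line, plated at 8000 cells/well in DPBS supplemented with 0.05% casein and 0.5 mM IBMX.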
Chain of hAM1 receptor (Q16602 23-461): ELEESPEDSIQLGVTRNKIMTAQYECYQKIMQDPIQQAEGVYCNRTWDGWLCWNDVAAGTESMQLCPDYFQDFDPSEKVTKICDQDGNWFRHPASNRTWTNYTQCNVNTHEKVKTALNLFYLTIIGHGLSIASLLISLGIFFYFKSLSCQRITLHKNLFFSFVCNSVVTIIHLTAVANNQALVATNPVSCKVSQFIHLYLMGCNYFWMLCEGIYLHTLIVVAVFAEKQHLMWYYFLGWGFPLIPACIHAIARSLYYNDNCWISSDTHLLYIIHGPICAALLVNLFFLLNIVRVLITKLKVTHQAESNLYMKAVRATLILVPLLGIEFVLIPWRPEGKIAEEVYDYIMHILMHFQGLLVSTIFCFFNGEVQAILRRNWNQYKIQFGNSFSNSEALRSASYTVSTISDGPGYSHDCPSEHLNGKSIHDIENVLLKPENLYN
Chain of hAM1 receptor (O60895 43-175 partner): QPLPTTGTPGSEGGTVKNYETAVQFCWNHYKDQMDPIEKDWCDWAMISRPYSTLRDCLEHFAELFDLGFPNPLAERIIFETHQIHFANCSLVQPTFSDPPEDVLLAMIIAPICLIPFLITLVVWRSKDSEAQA

The term EC50 denotes the midpoint of the concentration-response curve. Consider `CC[C@H](C)[C@H](NC(=O)[C@H](CCC(N)=O)NC(=O)[C@H](CCC(=O)O)NC(=O)[C@H](C)NC(=O)[C@H](CC(C)C)NC(=O)[C@H](CCCNC(=N)N)NC(=O)[C@H](CCC(N)=O)NC(=O)[C@@H](NC(=O)[C@@H](NC(=O)[C@@H]1CSSC[C@H](NC(=O)[C@@H](N)CCCCN)C(=O)N[C@@H](CC(N)=O)C(=O)N[C@@H]([C@@H](C)O)C(=O)N[C@@H](C)C(=O)N[C@@H]([C@@H](C)O)C(=O)N1)[C@@H](C)O)C(C)C)C(=O)N[C@@H](Cc1ccc(O)cc1)C(=O)N[C@@H](CCC(N)=O)C(=O)N[C@@H](Cc1ccccc1)C(=O)N[C@H](C(=O)N[C@@H](CC(=O)O)C(=O)N[C@@H](CCCCN)C(=O)N[C@@H](CC(=O)O)C(=O)N[C@@H](CCCCN)C(=O)N[C@@H](CC(=O)O)C(=O)N[C@@H](CCCCNC(=O)COCCOCCNC(=O)COCCOCCNC(=O)CC[C@H](NC(=O)CCCCCCCCCCCCCCCCCCC(=O)O)C(=O)O)C(=O)N[C@H](C(=O)N[C@@H](C)C(=O)N1CCC[C@H]1C(=O)N1CCC[C@H]1C(=O)N[C@H](C(=O)N[C@@H](CC(N)=O)C(=O)N[C@H](C(=O)NCC(=O)N[C@@H](CO)C(=O)N[C@@H](CC(N)=O)C(=O)NCC(=O)N1C[C@H](O)C[C@H]1C(N)=O)C(C)C)[C@@H](C)O)C(C)C)[C@@H](C)O` [compound 41] (H-KCNTATCTVQRLAEQIYQFTDKDKDK([AEEA-AEEA-γGlu-C20 diacid])VAPPTNVGSNG[Hyp]-NH2; disulfide 2-7; N-terminus assumed), for which the EC50 at hAMY3 receptor is 0.01 nM; at hAM1 receptor, over 5000 nM.

With `CC[C@H](C)[C@H](NC(=O)[C@H](CCC(N)=O)NC(=O)[C@H](CCC(=O)O)NC(=O)[C@H](C)NC(=O)[C@H](CC(C)C)NC(=O)[C@H](CCCNC(=N)N)NC(=O)[C@H](CCC(N)=O)NC(=O)[C@@H](NC(=O)[C@@H](NC(=O)[C@@H]1CSSC[C@H](NC(=O)[C@@H](N)CCCCN)C(=O)N[C@@H](CC(N)=O)C(=O)N[C@@H]([C@@H](C)O)C(=O)N[C@@H](C)C(=O)N[C@@H]([C@@H](C)O)C(=O)N1)[C@@H](C)O)C(C)C)C(=O)N[C@@H](Cc1ccc(O)cc1)C(=O)N[C@@H](CCC(N)=O)C(=O)N[C@@H](Cc1ccccc1)C(=O)N[C@H](C(=O)N[C@@H](CC(=O)O)C(=O)N[C@@H](CCCCN)C(=O)N[C@@H](CC(=O)O)C(=O)N[C@@H](CCCCN)C(=O)N[C@@H](CC(=O)O)C(=O)N[C@@H](CC(N)=O)C(=O)N[C@H](C(=O)N[C@@H](C)C(=O)N1CCC[C@H]1C(=O)N1CCC[C@H]1C(=O)N[C@@H](Cc1ccc(O)cc1)C(=O)N[C@@H](CC(N)=O)C(=O)N[C@@H](CCC(=O)O)C(=O)NCC(=O)N[C@@H](CO)C(=O)N[C@@H](CC(N)=O)C(=O)NCC(=O)N1C[C@H](O)C[C@H]1C(N)=O)C(C)C)[C@@H](C)O` [compound 44] (H-KCNTATCTVQRLAEQIYQFTDKDKDNVAPPYNEGSNG[Hyp]-NH2; disulfide 2-7; N-terminus assumed), the 50% effective concentration (EC50) at hAMY3 receptor was 0.01 nM; on hAM1 receptor, over 5000 nM.

For `CC[C@H](C)[C@H](NC(=O)[C@H](CCC(N)=O)NC(=O)[C@H](Cc1c[nH]cn1)NC(=O)[C@H](C)NC(=O)[C@H](CC(C)C)NC(=O)[C@H](CCCNC(=N)N)NC(=O)[C@H](CCC(N)=O)NC(=O)[C@@H](NC(=O)[C@@H](NC(=O)[C@@H]1CSSC[C@H](NC(=O)[C@H](CCCCN)NC(=O)CC[C@H](NC(=O)CCCCCCCCCCCCCCCCCCC(=O)O)C(=O)O)C(=O)N[C@@H](CC(N)=O)C(=O)N[C@@H]([C@@H](C)O)C(=O)N[C@@H](CO)C(=O)N[C@@H]([C@@H](C)O)C(=O)N1)[C@@H](C)O)C(C)C)C(=O)N[C@@H](Cc1ccc(O)cc1)C(=O)N[C@@H](CCC(N)=O)C(=O)N[C@@H](Cc1ccccc1)C(=O)N[C@H](C(=O)N[C@@H](CC(=O)O)C(=O)N[C@@H](CCCCN)C(=O)N[C@@H](CC(=O)O)C(=O)N[C@@H](CCCCN)C(=O)N[C@@H](CC(=O)O)C(=O)N[C@@H](CC(N)=O)C(=O)N[C@H](C(=O)N[C@@H](C)C(=O)N1CCC[C@H]1C(=O)N1CCC[C@H]1C(=O)N[C@H](C(=O)N[C@@H](CC(N)=O)C(=O)N[C@H](C(=O)NCC(=O)N[C@@H](CO)C(=O)N[C@@H](CC(N)=O)C(=O)NCC(=O)N1C[C@H](O)C[C@H]1C(N)=O)C(C)C)[C@@H](C)O)C(C)C)[C@@H](C)O` [compound 50] ({C20 diacid-γGlu}-KCNTSTCTVQRLAHQIYQFTDKDKDNVAPPTNVGSNG[Hyp]-NH2; disulfide 2-7), the EC50 at hAMY3 receptor was 0.011 nM; at hAM1 receptor, over 5000 nM.

In the case of `CC[C@H](C)[C@H](NC(=O)[C@H](CCC(N)=O)NC(=O)[C@H](CCC(=O)O)NC(=O)[C@H](C)NC(=O)[C@H](CC(C)C)NC(=O)[C@H](CCCNC(=N)N)NC(=O)[C@H](CCC(N)=O)NC(=O)[C@@H](NC(=O)[C@@H](NC(=O)[C@@H]1CSSC[C@H](NC(=O)[C@H](CCCCN)NC(=O)CC[C@H](NC(=O)CCCCCCCCCCCCCCCCCCC(=O)O)C(=O)O)C(=O)N[C@@H](CC(N)=O)C(=O)N[C@@H]([C@@H](C)O)C(=O)N[C@@H](C)C(=O)N[C@@H]([C@@H](C)O)C(=O)N1)[C@@H](C)O)C(C)C)C(=O)N[C@@H](Cc1ccc(O)cc1)C(=O)N[C@@H](CCC(N)=O)C(=O)N[C@@H](Cc1ccccc1)C(=O)N[C@H](C(=O)N[C@@H](CC(=O)O)C(=O)N[C@@H](CCCCN)C(=O)N[C@@H](CC(=O)O)C(=O)N[C@@H](CCCCN)C(=O)N[C@@H](CC(=O)O)C(=O)N[C@@H](CC(N)=O)C(=O)N[C@H](C(=O)N[C@@H](C)C(=O)N1CCC[C@H]1C(=O)N1CCC[C@H]1C(=O)N[C@H](C(=O)N[C@@H](CC(N)=O)C(=O)N[C@H](C(=O)NCC(=O)N[C@@H](CO)C(=O)N[C@@H](CC(N)=O)C(=O)NCC(=O)N1C[C@H](O)C[C@H]1C(N)=O)C(C)C)[C@@H](C)O)C(C)C)[C@@H](C)O` [compound 51] ({C20 diacid-γGlu}-KCNTATCTVQRLAEQIYQFTDKDKDNVAPPTNVGSNG[Hyp]-NH2; disulfide 2-7), the EC50 at hAMY3 receptor was 0.011 nM; on hAM1 receptor, over 5000 nM.

`CC[C@H](C)[C@H](NC(=O)[C@H](CCC(N)=O)NC(=O)[C@H](Cc1c[nH]cn1)NC(=O)[C@H](C)NC(=O)[C@H](CC(C)C)NC(=O)[C@H](CCCNC(=N)N)NC(=O)[C@H](CCC(N)=O)NC(=O)[C@@H](NC(=O)[C@@H](NC(=O)[C@@H]1CSSC[C@H](NC(=O)[C@@H](N)CCCCN)C(=O)N[C@@H](CC(N)=O)C(=O)N[C@@H]([C@@H](C)O)C(=O)N[C@@H](C)C(=O)N[C@@H]([C@@H](C)O)C(=O)N1)[C@@H](C)O)C(C)C)C(=O)N[C@@H](Cc1ccc(O)cc1)C(=O)N[C@@H](CCC(N)=O)C(=O)N[C@@H](Cc1ccccc1)C(=O)N[C@H](C(=O)N[C@@H](CC(=O)O)C(=O)N[C@@H](CCCCN)C(=O)N[C@@H](CC(=O)O)C(=O)N[C@@H](CCCCN)C(=O)N[C@@H](CC(=O)O)C(=O)N[C@@H](CC(N)=O)C(=O)N[C@H](C(=O)N[C@@H](C)C(=O)N[C@@H](C)C(=O)N1CCC[C@H]1C(=O)N[C@H](C(=O)N[C@@H](CC(N)=O)C(=O)N[C@H](C(=O)NCC(=O)N[C@@H](CO)C(=O)N[C@@H](CC(N)=O)C(=O)NCC(=O)N1C[C@H](O)C[C@H]1C(N)=O)C(C)C)[C@@H](C)O)C(C)C)[C@@H](C)O` [compound 53] (H-KCNTATCTVQRLAHQIYQFTDKDKDNVAAPTNVGSNG[Hyp]-NH2; disulfide 2-7; N-terminus assumed): the results for the EC50 at hAMY3 receptor and at hAM1 receptor were 0.011 nM and over 5000 nM, respectively.

With `CC[C@H](C)[C@H](NC(=O)[C@H](C)NC(=O)CNC(=O)[C@H](Cc1ccccc1)NC(=O)[C@H](CC(N)=O)NC(=O)[C@H](CC(N)=O)NC(=O)[C@H](CO)NC(=O)[C@H](CO)NC(=O)[C@H](Cc1c[nH]cn1)NC(=O)[C@@H](NC(=O)[C@H](CC(C)C)NC(=O)[C@H](Cc1ccccc1)NC(=O)[C@H](CC(N)=O)NC(=O)[C@H](C)NC(=O)[C@H](CC(C)C)NC(=O)[C@H](CCCNC(=N)N)NC(=O)[C@H](CCC(N)=O)NC(=O)[C@@H](NC(=O)[C@H](C)NC(=O)[C@@H]1CSSC[C@H](NC(=O)[C@@H](N)CCCCN)C(=O)N[C@@H](CC(N)=O)C(=O)N[C@@H]([C@@H](C)O)C(=O)N[C@@H](C)C(=O)N[C@@H]([C@@H](C)O)C(=O)N1)[C@@H](C)O)C(C)C)C(=O)N[C@@H](CC(C)C)C(=O)N[C@@H](CO)C(=O)N[C@@H](CO)C(=O)N[C@H](C(=O)N[C@@H](CCCCN)C(=O)N[C@H](C(=O)NCC(=O)N[C@@H](CO)C(=O)N[C@@H](CC(N)=O)C(=O)N[C@H](C(=O)N[C@@H](Cc1ccc(O)cc1)C(N)=O)[C@@H](C)O)C(C)C)[C@@H](C)O` [compound 58], the concentration giving a half-maximal response (EC50) on hAMY3 receptor is 0.012 nM; on hAM1 receptor, over 5000 nM.
